Test results published in the supplement of paper PMC10307832.

Columns and labels:
Assay in all cases: relative viability (nuclei count vs DMSO), 5 days (fraction); higher = more cells survive
AT-7519 + OSI-027 = compound: O=C(NC1CCNCC1)c1n[nH]cc1NC(=O)c1c(Cl)cccc1Cl [AT-7519] + COc1cccc2cc(-c3nc([C@H]4CC[C@H](C(=O)O)CC4)n4ncnc(N)c34)[nH]c12 [OSI-027] (partner 0.5 µM)
Summary of the method: (§1)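 Lung cancer cell lines in 1536-well plates got either a single drug or a fixed anchor-drug dose together with five library-drug doses (not always all listed) in √10 steps, by pin tool, on the day after seeding. Nuclei were counted after 5 days, and relative viability is the treated-to-vehicle ratio of nuclei counts. Values are medians of duplicate plates.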

AT-7519 + Linsitinib = compound: O=C(NC1CCNCC1)c1n[nH]cc1NC(=O)c1c(Cl)cccc1Cl [AT-7519] + C[C@]1(O)C[C@@H](c2nc(-c3ccc4ccc(-c5ccccc5)nc4c3)c3c(N)nccn32)C1 [Linsitinib] (partner 1 µM)
Summary of the method: as §1

AT-7519 + Alpelisib = compound: O=C(NC1CCNCC1)c1n[nH]cc1NC(=O)c1c(Cl)cccc1Cl [AT-7519] + Cc1nc(NC(=O)N2CCC[C@H]2C(N)=O)sc1-c1ccnc(C(C)(C)C(F)(F)F)c1 [Alpelisib] (partner 2 µM)
Summary of the method: as §1

AT-7519 + Vorinostat = compound: O=C(NC1CCNCC1)c1n[nH]cc1NC(=O)c1c(Cl)cccc1Cl [AT-7519] + O=C(CCCCCCC(=O)Nc1ccccc1)NO [Vorinostat] (partner 1 µM)
Summary of the method: as §1

| Cell Line | relative viability (AT-7519 + OSI-027; first compound 0.01 µM) | relative viability (AT-7519 + OSI-027; first compound 0.03162 µM) | relative viability (AT-7519 + OSI-027; first compound 0.3162 µM) | relative viability (AT-7519 + OSI-027; first compound 1 µM) | relative viability (AT-7519 + Linsitinib; first compound 0.01 µM) | relative viability (AT-7519 + Linsitinib; first compound 0.03162 µM) | relative viability (AT-7519 + Linsitinib; first compound 0.3162 µM) | relative viability (AT-7519 + Linsitinib; first compound 1 µM) | relative viability (AT-7519 + Alpelisib; first compound 0.01 µM) | relative viability (AT-7519 + Alpelisib; first compound 0.03162 µM) | relative viability (AT-7519 + Alpelisib; first compound 0.3162 µM) | relative viability (AT-7519 + Alpelisib; first compound 1 µM) | relative viability (AT-7519 + Vorinostat; first compound 0.01 µM) | relative viability (AT-7519 + Vorinostat; first compound 0.03162 µM) | relative viability (AT-7519 + Vorinostat; first compound 0.3162 µM) | relative viability (AT-7519 + Vorinostat; first compound 1 µM) |
| --- | --- | --- | --- | --- | --- | --- | --- | --- | --- | --- | --- | --- | --- | --- | --- | --- |
| SW 1573 | 0.604 | 0.659 | 0.436 | 0.107 | 0.762 | 0.664 | 0.739 | 0.398 | 0.802 | 0.739 | 0.743 | 0.394 | 0.812 | 0.696 | 0.615 | 0.231 |
| NCI-H661 | 0.671 | 0.694 | 0.564 | 0.333 | 0.46 | 0.513 | 0.538 | 0.343 | 0.488 | 0.445 | 0.758 | 0.506 | 0.792 | 0.829 | 0.867 | 0.261 |
| PC-3 [JPC-3] | 0.706 | 0.904 | 0.697 | 0.696 | 0.957 | 0.974 | 1.04 | 1.02 | 1.02 | 1.03 | 1.04 | 1.03 | 0.667 | 0.773 | 0.884 | 1.17 |
| NCI-H1623 | 0.529 | 0.424 | 0.432 | 0.362 | – | – | – | – | – | – | – | – | – | – | – | – |
| Calu-6 | – | – | – | – | 1.05 | 0.942 | 1.07 | 0.772 | 0.995 | 1.17 | 0.877 | 0.391 | – | – | – | – |
| LC-2-ad | 0.733 | 0.866 | 0.862 | 0.514 | 0.754 | 0.832 | 0.908 | 0.464 | 0.914 | 0.843 | 0.904 | 0.472 | 0.717 | 0.665 | 0.748 | 0.781 |
| CAL-12T | 0.673 | 0.649 | 0.296 | 0.135 | 0.755 | 0.752 | 0.69 | 0.314 | 1.27 | 1.02 | 0.534 | 0.13 | 0.777 | 0.653 | 0.543 | 0.108 |
| RERF-LC-KJ | 0.572 | 0.53 | 0.54 | 0.25 | 0.914 | 0.848 | 1.03 | 0.811 | 0.787 | 0.718 | 0.768 | 0.537 | 0.776 | 0.666 | 0.631 | 0.459 |
| NCI-H1650 | 0.779 | 0.598 | 0.46 | 0.181 | – | – | – | – | – | – | – | – | 0.534 | 0.681 | 0.489 | 0.23 |
| BEN | 0.541 | 0.278 | 0.55 | 0.412 | 0.887 | 0.894 | 0.864 | 0.785 | 1.03 | 0.954 | 1.12 | 0.76 | 0.6 | 0.537 | 0.593 | 0.579 |
| EMC-BAC-2 | 0.363 | 0.343 | 0.358 | 0.476 | 0.823 | 0.816 | 0.778 | 0.77 | 0.716 | 0.699 | 0.782 | 0.746 | 0.424 | 0.422 | 0.531 | 0.878 |
| LU99A | 0.315 | 0.248 | 0.223 | 0.299 | 0.514 | 0.577 | 0.54 | 0.404 | 0.612 | 0.435 | 0.478 | 0.42 | 0.481 | 0.462 | 0.469 | 0.448 |
